Measured values: patent US20240262814A1, “MODULATORS OF TREX1” (Constellation Pharmaceuticals, Inc., priority 2021, published 2024)
pIC50: −log10 of the molar value.

How the values were obtained:
[1] = target: T1, human TREX1 (Homo sapiens, UniProt Q9NSU2); assay: hTREX1 Biochemical Assay (fluorescence, dsDNA substrate degradation); conditions: full length human TREX1, 4 h pre-incubation, 18 h reaction at 25° C.
T1 construct: N-terminally His-Tev tagged full length human TREX1; made in house; host or cells: E. coli
T1 sequence (Q9NSU2 1-314): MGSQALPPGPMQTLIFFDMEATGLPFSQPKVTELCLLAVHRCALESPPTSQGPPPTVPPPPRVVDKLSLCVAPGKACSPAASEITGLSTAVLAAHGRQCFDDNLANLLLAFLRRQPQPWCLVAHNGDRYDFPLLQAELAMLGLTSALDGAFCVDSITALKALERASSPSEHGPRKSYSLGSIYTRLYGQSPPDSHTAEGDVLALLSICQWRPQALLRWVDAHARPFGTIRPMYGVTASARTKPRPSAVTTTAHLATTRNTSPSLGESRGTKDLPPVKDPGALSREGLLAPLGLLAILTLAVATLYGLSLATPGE
Method: (§1) Degradation of the dsDNA liberates free fluorophore to produce a fluorescent signal. Specifically, 7.5 μL of N-terminally His-Tev tagged full length human TREX1 (expressed in E. coli and purified in house) in reaction buffer (50 mM Tris, 150 mM NaCl, 2 mM DTT, 0.1 mg/mL BSA, 0.01% (w/v) Tween-20, 5 mM MgCl2, pH 7.4) was added to a 384-well Black ProxiPlate Plus (PerkinElmer) which already contained compound (150 nL) at varying concentrations as a 10 point dose-response in DMSO. The plate was incubated at 25° C. for 4 hours. Reactions were initiated by adding 7.5 μL of dsDNA substrate (Strand A: 5′ TEX615/GCT AGG CAG 3′; Strand B: 5′ CTG CCT AGC/IAbRQSp (Integrated DNA Technologies)) in reaction buffer. Final concentrations were 4 pM TREX1, 60 nM dsDNA substrate in reaction buffer with 1.0% DMSO (v/v). After 18 hours at 25° C., reactions were quenched by the addition of 2 p L of 500 mM EDTA. Final concentrations in the quenched reaction were 3.5 pM TREX1, 53 nM DNA and 59 mM EDTA in a volume of 17 μL. After a 5-minute incubation at room temperature, plates were read in an EnVision plate reader (PerkinElmer) measuring fluorescence at 615 nm following excitation w/ 570 nm light. IC50 values were calculated by comparing the measured fluorescence at 615 nm relative to control wells pre-quenched w/ EDTA (100% inhibition) and no inhibitor (0% inhibition) controls as using non-linear least square four parameter fits and either Genedata or GraphPad Prism (GraphPad Software, Inc.).

[2] = target: T2, human TREX2 (Homo sapiens, UniProt Q9BQ50); assay: hTREX2 Biochemical Assay (selectivity hTREX1 vs hTREX2); conditions: biochemical selectivity for hTREX1 vs hTREX2
T2 construct: human TREX2 (residues M44-A279, expressed in E. coli); made in house; host or cells: E. coli
T2 sequence (Q9BQ50 44-279 isoform Q9BQ50-1): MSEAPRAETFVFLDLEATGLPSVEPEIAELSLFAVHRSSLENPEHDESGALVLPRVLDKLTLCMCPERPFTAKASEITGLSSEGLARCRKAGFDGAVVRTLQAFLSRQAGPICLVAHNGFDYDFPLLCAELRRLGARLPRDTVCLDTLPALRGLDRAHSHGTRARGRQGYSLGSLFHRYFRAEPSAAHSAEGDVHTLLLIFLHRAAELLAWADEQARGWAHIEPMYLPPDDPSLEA
Method: Degradation of the dsDNA liberates free fluorophore to produce a fluorescent signal. Specifically, 7.5 p L of N-terminally His-Tev tagged human TREX2 (residues M44-A279, expressed in E. coli and purified in house) in reaction buffer (50 mM Tris, 150 mM NaCl, 2 mM DTT, 0.1 mg/mL BSA, 0.01% (w/v) Tween-20, 5 mM MgCl2, pH 7.4) was added to a 384-well Black ProxiPlate Plus (PerkinElmer) which already contained compound (150 nL) at varying concentrations as a 10 point dose-response in DMSO. The plate was incubated at 25° C. for 4 hours. Reactions were initiated by adding 7.5 μL of dsDNA substrate (Strand A: 5′ TEX615/GCT AGG CAG 3′; Strand B: 5′ CTG CCT AGC/IAbRQSp (IDT)) in reaction buffer. Final concentrations were 50 pM TREX2, 60 nM dsDNA substrate in reaction buffer with 1.0% DMSO (v/v). After 18 hours at 25° C., reactions were quenched by the addition of 2 μL of 500 mM EDTA. Final concentrations in the quenched reaction mixture were 44 pM TREX2, 53 nM DNA and 59 mM EDTA in a volume of 17 μL. After a 5-minute incubation at room temperature, plates were read in an EnVision plate reader (PerkinElmer) measuring fluorescence at 615 nm following excitation w/ 570 nm light. IC50 values were calculated by comparing the measured fluorescence at 615 nm relative to control wells pre-quenched w/ stop buffer (100% inhibition) and no inhibitor (0% inhibition) controls as using non-linear least square four parameter fits and either Genedata or GraphPad Prism (GraphPad Software, Inc.).

[3] = target: T3, mouse TREX1 (Mus musculus, UniProt Q91XB0); assay: mTREX1 Biochemical Assay (fluorescence, dsDNA substrate degradation); conditions: full length mouse TREX1, 4 h pre-incubation, 18 h reaction at 25° C.
T3 construct: N-terminally His-Tev tagged full length mouse TREX1; made in house; host or cells: E. coli
T3 sequence (Q91XB0 1-314): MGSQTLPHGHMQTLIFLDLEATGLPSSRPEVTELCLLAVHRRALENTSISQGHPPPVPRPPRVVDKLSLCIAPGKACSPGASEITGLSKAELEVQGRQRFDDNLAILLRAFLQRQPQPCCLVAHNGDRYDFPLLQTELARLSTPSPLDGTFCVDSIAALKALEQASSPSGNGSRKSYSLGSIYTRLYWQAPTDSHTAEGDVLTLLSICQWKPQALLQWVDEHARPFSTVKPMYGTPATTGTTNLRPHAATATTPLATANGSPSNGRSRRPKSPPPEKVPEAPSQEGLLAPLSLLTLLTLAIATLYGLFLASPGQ
Method: as §1, with “Specifically, 7.5 p L of N-terminally” for “Specifically, 7.5 μL of N-terminally”, “full length mouse TREX1 (expressed” for “full length human TREX1 (expressed”, “concentrations were 6 pM TREX1,” for “concentrations were 4 pM TREX1,”, “reaction were 5.3 pM TREX1,” for “reaction were 3.5 pM TREX1,”, “of 17 p L. After a” for “of 17 μL. After a”

Row | pIC50 [1] | hTREX1 vs hTREX2 selectivity [2] | pIC50 [3] | SMILES
1 | 7.00 to 8.00 | C (C = >50 fold selective for hTREX1) | < 8.00 | Cn1c([C@@H](C(c2ccccc2C#N)c2ccccc2C#N)C(F)(F)F)nc(C(=O)Nc2cnoc2)c(O)c1=O (single isomer, unassigned) [Example 21 Isomer 2, 2-(3,3-bis(2-cyanophenyl)-1,1,1-trifluoropropan-2-yl)-5-hydroxy-N-(isoxazol-4-yl)-1-methyl-6-oxo-1,6-dihydropyrimidine-4-carboxamide]
2 | < 7.00 | A (A = <25 fold selective for hTREX1) | < 8.00 | CC(c1nc(C(=O)Nc2cnoc2)c(O)c(=O)n1C)C(c1ccccc1)c1ccccc1C#N (single isomer, unassigned) [Example 3 Isomer 3]
3 | 8.00 to 9.00 | C (C = >50 fold selective for hTREX1) | < 8.00 | CC(c1nc(C(=O)Nc2cnoc2)c(O)c(=O)n1C)C(c1ccccc1)c1cc(Cl)ccc1C#N (single isomer, unassigned) [Example 8 Isomer 3]
4 | < 7.00 | A (A = <25 fold selective for hTREX1) | < 8.00 | C[C@H](c1nc(C(=O)Nc2cnoc2)c(O)c(=O)n1C)[C@H](c1ccccc1)c1ccccc1Cl (single isomer, unassigned) [Example 2 Isomer 4, 2-(1-(2-chlorophenyl)-1-phenylpropan-2-yl)-5-hydroxy-N-(isoxazol-4-yl)-1-methyl-6-oxo-1,6-dihydropyrimidine-4-carboxamide]
5 | 8.00 to 9.00 | A (A = <25 fold selective for hTREX1) | 8.00 to 9.00 | CC(c1nc(C(=O)Nc2cnoc2)c(O)c(=O)n1C)C(c1cc(F)cc(F)c1)c1ccccc1C#N (single isomer, unassigned) [Example 11 Isomer 4]
6 | < 7.00 | A (A = <25 fold selective for hTREX1) | < 8.00 | Cn1c(C(C)(C)C(c2ccccc2)c2ccccc2)nc(C(=O)Nc2cnoc2)c(O)c1=O [Example B, 5-hydroxy-N-(isoxazol-4-yl)-1-methyl-2-(2-methyl-1,1-diphenylpropan-2-yl)-6-oxo-1,6-dihydropyrimidine-4-carboxamide]
7 | < 7.00 | A (A = <25 fold selective for hTREX1) | < 8.00 | Cn1c(CC(c2ccccc2)c2ccccc2)nc(C(=O)Nc2cnoc2)c(O)c1=O [Example A, 2-(2,2-diphenylethyl)-5-hydroxy-N-(isoxazol-4-yl)-1-methyl-6-oxo-1,6-dihydropyrimidine-4-carboxamide]
8 | > 9.00 | C (C = >50 fold selective for hTREX1) | < 8.00 | CC(c1nc(C(=O)Nc2cnoc2)c(O)c(=O)n1C)C(c1ccccc1)c1ccc(F)cc1C#N (single isomer, unassigned) [Example 7 Isomer 1]

Row | SMILES | pIC50 [1] | hTREX1 vs hTREX2 selectivity [2] | pIC50 [3]
9 | CC(c1nc(C(=O)Nc2cnoc2)c(O)c(=O)n1C)C(c1ccccc1Cl)c1ccccc1C#N (single isomer, unassigned) [Example 10 Isomer 2] | 7.00 to 8.00 | B (B = 25 to 50 fold selective for hTREX1) | < 8.00
10 | C[C@H](c1nc(C(=O)Nc2cnoc2)c(O)c(=O)n1C)[C@H](c1ccccc1)c1ccc(C(=O)N(C)C)cc1C#N (single isomer, unassigned) [Example 16 Isomer 4, 2-(1-(2-cyano-4-(dimethylcarbamoyl)phenyl)-1-phenylpropan-2-yl)-5-hydroxy-N-(isoxazol-4-yl)-1-methyl-6-oxo-1,6-dihydropyrimidine-4-carboxamide] | > 9.00 | B (B = 25 to 50 fold selective for hTREX1) | > 9.00
11 | C[C@H](c1nc(C(=O)Nc2cnoc2)c(O)c(=O)n1C)[C@H](c1ccccc1)c1ccccc1C(F)(F)F (single isomer, unassigned) [Example 14 Isomer 4, 5-Hydroxy-N-(isoxazol-4-yl)-1-methyl-6-oxo-2-(1-phenyl-1-(2-(trifluoromethyl)phenyl)propan-2-yl)-1,6-dihydropyrimidine-4-carboxamide] | 8.00 to 9.00 | B (B = 25 to 50 fold selective for hTREX1) | < 8.00
12 | CC(c1nc(C(=O)Nc2cnoc2)c(O)c(=O)n1C)C(c1ccccc1)c1ccc(Cl)cc1C#N (single isomer, unassigned) [Example 9 Isomer 2] | < 7.00 | B (B = 25 to 50 fold selective for hTREX1) | < 8.00
13 | CC(c1nc(C(=O)Nc2cnoc2)c(O)c(=O)n1C)C(c1ccccc1)c1ccccc1C#N (single isomer, unassigned) [Example 3 Isomer 1] | 8.00 to 9.00 | B (B = 25 to 50 fold selective for hTREX1) | < 8.00
